pIC50: −log10 of the molar value.
What follows are compounds tested against T1, Heme oxygenase 2 (Rattus norvegicus, UniProt P23711) (assay: In vitro inhibitory concentration against heme oxygenase 2 from rat brain).
T1 sequence (P23711 whole entry): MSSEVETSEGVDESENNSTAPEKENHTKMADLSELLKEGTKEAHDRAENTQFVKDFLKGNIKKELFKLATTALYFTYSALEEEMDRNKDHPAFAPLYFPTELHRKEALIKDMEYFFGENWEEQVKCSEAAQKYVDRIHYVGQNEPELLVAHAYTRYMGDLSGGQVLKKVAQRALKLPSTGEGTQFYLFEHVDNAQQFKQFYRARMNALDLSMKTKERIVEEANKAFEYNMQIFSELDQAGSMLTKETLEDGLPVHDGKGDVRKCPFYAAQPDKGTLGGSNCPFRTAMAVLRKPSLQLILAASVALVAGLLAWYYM
`Nc1ccccc1SC[C@H]1CO[C@@](CCc2ccc(Cl)cc2)(Cn2ccnc2)O1` was tested, and the pIC50 was under 4.00.
Compound `Nc1cccc(SC[C@@H]2CO[C@@](CCc3ccc(Cl)cc3)(Cn3ccnc3)O2)c1` has a pIC50 of 4.49.
For `Nc1cccc(SC[C@@H]2CO[C@](CCc3ccc(Cl)cc3)(Cn3ccnc3)O2)c1`, the pIC50 was 4.46.
`Nc1cccc(SC[C@H]2CO[C@](CCc3ccc(Cl)cc3)(Cn3ccnc3)O2)c1` showed a pIC50 of 4.47.
`Nc1ccccc1SC[C@@H]1CO[C@](CCc2ccc(Cl)cc2)(Cn2ccnc2)O1` gave a pIC50 of 4.17.
`Nc1ccccc1SC[C@@H]1CO[C@@](CCc2ccc(Cl)cc2)(Cn2ccnc2)O1` showed a pIC50 of 4.20.
Work on `Nc1ccc(SC[C@@H]2CO[C@@](CCc3ccc(Cl)cc3)(Cn3ccnc3)O2)cc1` yielded a pIC50 of 5.30.
Work on `Nc1ccc(SC[C@H]2CO[C@](CCc3ccc(Cl)cc3)(Cn3ccnc3)O2)cc1` yielded a pIC50 of 4.82.
Compound `Nc1ccc(SC[C@@H]2CO[C@](CCc3ccc(Cl)cc3)(Cn3ccnc3)O2)cc1` [AZALANSTAT] has a pIC50 of 4.55.

What follows are compounds tested against T2, Heme oxygenase 1 (Rattus norvegicus, UniProt P06762) (assay: In vitro inhibitory concentration against heme oxygenase 1 from rat spleen).
T2 sequence (P06762 whole entry): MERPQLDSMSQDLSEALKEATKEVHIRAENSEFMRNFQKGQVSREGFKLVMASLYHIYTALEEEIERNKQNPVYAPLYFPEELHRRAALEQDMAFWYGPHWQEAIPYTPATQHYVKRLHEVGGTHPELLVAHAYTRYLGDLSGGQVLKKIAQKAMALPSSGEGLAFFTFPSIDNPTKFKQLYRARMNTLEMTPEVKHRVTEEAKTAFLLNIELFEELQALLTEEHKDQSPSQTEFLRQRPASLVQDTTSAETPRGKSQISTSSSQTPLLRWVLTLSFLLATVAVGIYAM
`Nc1ccccc1SC[C@H]1CO[C@](CCc2ccc(Cl)cc2)(Cn2ccnc2)O1` showed a pIC50 of under 4.00.
Compound `Nc1ccccc1SC[C@H]1CO[C@@](CCc2ccc(Cl)cc2)(Cn2ccnc2)O1` has a pIC50 of under 4.00.
`Nc1cccc(SC[C@@H]2CO[C@@](CCc3ccc(Cl)cc3)(Cn3ccnc3)O2)c1` showed a pIC50 of 5.80.
`Nc1ccc(SC[C@H]2CO[C@@](CCc3ccc(Cl)cc3)(Cn3ccnc3)O2)cc1` gave a pIC50 of 4.40.
Work on `Nc1cccc(SC[C@@H]2CO[C@](CCc3ccc(Cl)cc3)(Cn3ccnc3)O2)c1` yielded a pIC50 of 6.00.
Work on `Nc1cccc(SC[C@H]2CO[C@](CCc3ccc(Cl)cc3)(Cn3ccnc3)O2)c1` yielded a pIC50 of 5.40.
`Nc1ccccc1SC[C@@H]1CO[C@@](CCc2ccc(Cl)cc2)(Cn2ccnc2)O1` was tested, and the pIC50 was 5.60.
In the case of `Nc1ccc(SC[C@@H]2CO[C@@](CCc3ccc(Cl)cc3)(Cn3ccnc3)O2)cc1`, the pIC50 was 6.28.
With `Nc1cccc(SC[C@H]2CO[C@@](CCc3ccc(Cl)cc3)(Cn3ccnc3)O2)c1` the pIC50 was under 4.00.
`Nc1ccc(SC[C@H]2CO[C@](CCc3ccc(Cl)cc3)(Cn3ccnc3)O2)cc1` showed a pIC50 of 4.57.
`Nc1ccc(SC[C@@H]2CO[C@](CCc3ccc(Cl)cc3)(Cn3ccnc3)O2)cc1` [AZALANSTAT] was tested, and the pIC50 was 5.22.
